The values that follow come from US10023570B2 (Array BioPharma, Inc., priority 2015, dated 2018).

The structures appear in SMILES notation. Structures can show the parent of a compound that is named as a salt.

For the experiment, the target named is human KDR protein in HEK-293 cells (Homo sapiens (Human), UniProt P35968). Nature of the experiment: KDR Cell Assay (phospho-KDR in HEK-293 cells expressing inducible KDR). The format is cell-based. The note with it: pKDR Cell HEK 10% FBS IC50, HEK-293 cells expressing inducible KDR, VEGF stimulated. The method, boiled down:
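HEK-293 cells with inducible human KDR were treated with compound for 1 h in DMEM (0.25% DMSO final), then lysed. Phospho-KDR was quantified by Meso Scale immunoassay, expressed as percent of control, and IC50 taken where a 4-parameter logistic fit crossed 50 POC.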

Sequence of human KDR protein in HEK-293 cells (P35968 20-1356): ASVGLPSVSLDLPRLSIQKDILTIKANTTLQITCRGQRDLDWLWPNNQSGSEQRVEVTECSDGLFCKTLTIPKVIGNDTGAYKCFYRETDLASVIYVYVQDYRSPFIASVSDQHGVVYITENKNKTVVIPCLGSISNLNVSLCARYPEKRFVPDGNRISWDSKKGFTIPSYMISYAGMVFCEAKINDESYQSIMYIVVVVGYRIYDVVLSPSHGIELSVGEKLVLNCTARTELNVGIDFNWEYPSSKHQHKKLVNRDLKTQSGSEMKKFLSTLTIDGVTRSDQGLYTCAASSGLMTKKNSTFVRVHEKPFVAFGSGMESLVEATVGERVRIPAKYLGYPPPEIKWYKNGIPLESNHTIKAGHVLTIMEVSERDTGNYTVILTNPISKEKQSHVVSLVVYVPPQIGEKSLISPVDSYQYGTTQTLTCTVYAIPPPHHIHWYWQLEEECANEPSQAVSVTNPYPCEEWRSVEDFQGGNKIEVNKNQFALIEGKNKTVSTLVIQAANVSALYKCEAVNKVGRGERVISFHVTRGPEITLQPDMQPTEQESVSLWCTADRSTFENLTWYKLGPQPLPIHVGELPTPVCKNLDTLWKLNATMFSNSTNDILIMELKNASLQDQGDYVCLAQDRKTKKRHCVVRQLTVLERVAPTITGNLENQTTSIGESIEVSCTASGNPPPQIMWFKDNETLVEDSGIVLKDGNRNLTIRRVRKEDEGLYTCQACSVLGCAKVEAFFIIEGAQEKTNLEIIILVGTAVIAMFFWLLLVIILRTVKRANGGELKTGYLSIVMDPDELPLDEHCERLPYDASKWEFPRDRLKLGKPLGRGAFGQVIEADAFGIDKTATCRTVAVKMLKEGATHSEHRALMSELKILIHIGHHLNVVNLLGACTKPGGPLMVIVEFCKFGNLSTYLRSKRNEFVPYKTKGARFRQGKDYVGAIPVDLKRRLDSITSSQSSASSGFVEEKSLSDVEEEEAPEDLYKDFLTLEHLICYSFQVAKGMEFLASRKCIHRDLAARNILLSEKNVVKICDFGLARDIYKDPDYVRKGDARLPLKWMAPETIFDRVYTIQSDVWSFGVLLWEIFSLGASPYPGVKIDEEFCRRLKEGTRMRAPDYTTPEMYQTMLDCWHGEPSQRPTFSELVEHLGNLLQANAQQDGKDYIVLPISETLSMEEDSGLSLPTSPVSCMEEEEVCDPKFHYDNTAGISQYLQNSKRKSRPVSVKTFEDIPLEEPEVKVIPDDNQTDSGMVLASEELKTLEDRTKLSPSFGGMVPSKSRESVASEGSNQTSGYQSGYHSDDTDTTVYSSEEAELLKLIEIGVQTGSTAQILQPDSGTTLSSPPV

The IC50 is the concentration that inhibits the measured activity by half. Lower therefore signals greater potency. In the case of `Cn1cc(-c2cc(-c3ccc(N4CCN(C(=O)Cc5ccc(OC(F)(F)F)cc5)CC4)nc3)c3c(C#N)cnn3c2)cn1` [Example 357, 6-(1-methyl-1H-pyrazol-4-yl)-4-(6-(4-(2-(4-(trifluoromethoxy)phenyl)acetyl)piperazin-1-yl)pyridin-3-yl)pyrazolo[1,5-a]pyridine-3-carbonitrile 2,2,2-trifluoroacetate], inhibition (10% FBS) was half-maximal at 2040 nM (IC50).

For the compound `Cn1cc(-c2cc(-c3ccc(N4CCN(C(=O)OC(C)(C)C)C5(CC5)C4)nc3)c3c(C#N)cnn3c2)cn1` [Example 166, tert-butyl 7-(5-(3-cyano-6-(1-methyl-1H-pyrazol-4-yl)pyrazolo[1,5-a]pyridin-4-yl)pyridin-2-yl)-4,7-diazaspiro[2.5]octane-4-carboxylate], the IC50 (10% FBS) was determined as 1990 nM.

For the setting “10% FBS”, `Cn1cc(C(=O)N2CCN(c3ccc(-c4cc(-c5cnn(C)c5)cn5ncc(C#N)c45)cn3)CC2)cn1` [Example 35, 6-(1-methyl-1H-pyrazol-4-yl)-4-(6-(4-(1-methyl-1H-pyrazole-4-carbonyl)piperazin-1-yl)pyridin-3-yl)pyrazolo[1,5-a]pyridine-3-carbonitrile 2,2,2-trifluoroacetate] yielded an IC50 of 437 nM.

Where the note is “10% FBS”, `Cn1cc(-c2cc(-c3ccc(N4CCN(C(=O)C5(c6ccc(F)cc6)CC5)CC4)nc3)c3c(C#N)cnn3c2)cn1` [Example 345, 4-(6-(4-(1-(4-fluorophenyl)cyclopropanecarbonyl)piperazin-1-yl)pyridin-3-yl)-6-(1-methyl-1H-pyrazol-4-yl)pyrazolo[1,5-a]pyridine-3-carbonitrile] registered an IC50 of 305 nM.

`COCCn1ccc(C(=O)N2CCN(c3ccc(-c4cc(-c5cnn(C)c5)cn5ncc(C#N)c45)cn3)CC2)n1` [Example 366, 4-(6-(4-(1-(2-methoxyethyl)-1H-pyrazole-3-carbonyl)piperazin-1-yl)pyridin-3-yl)-6-(1-methyl-1H-pyrazol-4-yl)pyrazolo[1,5-a]pyridine-3-carbonitrile bis(2,2,2-trifluoroacetate)] came in with an IC50 (10% FBS) of 422 nM.

As for `Cn1cc(-c2cc(-c3ccc(N4CCC(Oc5ccc(Cl)cc5)CC4)nc3)c3c(C#N)cnn3c2)cn1` [Example 509, 4-(6-(4-(4-chlorophenoxy)piperidin-1-yl)pyridin-3-yl)-6-(1-methyl-1H-pyrazol-4-yl)pyrazolo[1,5-a]pyridine-3-carbonitrile], the IC50 amounted to 9.2 nM. This counts as single-digit nanomolar.

On to `CC(C)CS(=O)(=O)N1CCN(c2ccc(-c3cc(-c4cnn(C)c4)cn4ncc(C#N)c34)cn2)CC1` [Example 90, 4-(6-(4-(isobutylsulfonyl)piperazin-1-yl)pyridin-3-yl)-6-(1-methyl-1H-pyrazol-4-yl)pyrazolo[1,5-a]pyridine-3-carbonitrile], for which, for the setting “10% FBS”, the midpoint of inhibition, the IC50, lay at 24.1 nM.

With `Cc1cc(C(=O)N2CCN(c3ccc(-c4cc(-c5cnn(C)c5)cn5ncc(C#N)c45)cn3)CC2)no1` [Example 37, 6-(1-methyl-1H-pyrazol-4-yl)-4-(6-(4-(5-methylisoxazole-3-carbonyl)piperazin-1-yl)pyridin-3-yl)pyrazolo[1,5-a]pyridine-3-carbonitrile 2,2,2-trifluoroacetate], where the note is “10% FBS”, the IC50 turned out to be 91.2 nM.

Take `Cn1cc(-c2cc(-c3ccc(N4CCOCC4)nc3)c3c(C#N)cnn3c2)cn1` [Example 224, 6-(1-methyl-1H-pyrazol-4-yl)-4-(6-morpholinopyridin-3-yl)pyrazolo[1,5-a]pyridine-3-carbonitrile]: the IC50 (10% FBS) was 555 nM.

Take `Cn1cc(-c2cc(-c3ccc(N4CCN(C[C@H](O)c5cccc(Cl)c5)CC4)nc3)c3c(C#N)cnn3c2)cn1` [Example 153, (R)-4-(6-(4-(2-(3-chlorophenyl)-2-hydroxyethyl)piperazin-1-yl)pyridin-3-yl)-6-(1-methyl-1H-pyrazol-4-yl)pyrazolo[1,5-a]pyridine-3-carbonitrile]: where the note is “10% FBS”, the IC50 is 164 nM.

For the setting “10% FBS”, `Cn1cc(-c2cc(-c3ccc(N4CCN(C(=O)N5CCCC(F)(F)C5)CC4)nc3)c3c(C#N)cnn3c2)cn1` [Example 94, 4-(6-(4-(3,3-difluoropiperidine-1-carbonyl)piperazin-1-yl)pyridin-3-yl)-6-(1-methyl-1H-pyrazol-4-yl)pyrazolo[1,5-a]pyridine-3-carbonitrile] showed an IC50 of 1700 nM. This IC50 lies about 10-fold higher than the previous one.

Take `Cn1cc(-c2cc(-c3ccc(N4CCN(Cc5ccc(F)cc5)CC4)nc3)c3c(C#N)cnn3c2)cn1` [Example 424, 4-(6-(4-(4-fluorobenzyl)piperazin-1-yl)pyridin-3-yl)-6-(1-methyl-1H-pyrazol-4-yl)pyrazolo[1,5-a]pyridine-3-carbonitrile]: it took 630 nM to reach half-maximal inhibition (IC50).

In turn, `Cn1cc(-c2cc(-c3ccc(N4CCN(C(=O)c5ccccc5N5CCOCC5)CC4)nc3)c3c(C#N)cnn3c2)cn1` [Example 358, 6-(1-methyl-1H-pyrazol-4-yl)-4-(6-(4-(2-morpholinobenzoyl)piperazin-1-yl)pyridin-3-yl)pyrazolo[1,5-a]pyridine-3-carbonitrile bis(2,2,2-trifluoroacetate)] had an IC50 (10% FBS) of 161 nM. That is a sub-micromolar value.

Take `Cn1cc(-c2cc(-c3ccc(N4CCN(C(=O)N5CCCCC5)CC4)nc3)c3c(C#N)cnn3c2)cn1` [Example 93, 6-(1-methyl-1H-pyrazol-4-yl)-4-(6-(4-(piperidine-1-carbonyl)piperazin-1-yl)pyridin-3-yl)pyrazolo[1,5-a]pyridine-3-carbonitrile]: under “10% FBS”, the IC50 was 1700 nM.

Take `C[C@@H](O)Cn1cc(-c2cc(-c3ccc(N4CCN(C(=O)CC(C)(C)C)CC4)cc3)c3c(C#N)cnn3c2)cn1` [Example 305, (R)-4-(4-(4-(3,3-dimethylbutanoyl)piperazin-1-yl)phenyl)-6-(1-(2-hydroxypropyl)-1H-pyrazol-4-yl)pyrazolo[1,5-a]pyridine-3-carbonitrile]: where the note is “10% FBS”, the midpoint of inhibition, the IC50, lay at 1490 nM.

For the compound `Cn1cc(-c2cc(-c3ccc(N4CCN(C(=O)C(O)c5ccccc5F)CC4)nc3)c3c(C#N)cnn3c2)cn1` (centres unmarked) [Example 10, 4-(6-(4-(2-(2-fluorophenyl)-2-hydroxyacetyl)piperazin-1-yl)pyridin-3-yl)-6-(1-methyl-1H-pyrazol-4-yl)pyrazolo[1,5-a]pyridine-3-carbonitrile], 47.4 nM corresponded to half-maximal inhibition (10% FBS) (IC50). Compared with the last compound, the IC50 is about 31-fold lower.

Consider `Cn1cc(-c2cc(-c3ccc(N4CCN(CC(C)(C)O)CC4)nc3)c3c(C#N)cnn3c2)cn1` [Example 156, 4-(6-(4-(2-hydroxy-2-methylpropyl)piperazin-1-yl)pyridin-3-yl)-6-(1-methyl-1H-pyrazol-4-yl)pyrazolo[1,5-a]pyridine-3-carbonitrile], for which the IC50 (10% FBS) came to 1760 nM.

`Cn1cc(-c2cc(-c3ccc(N4CCN(S(=O)(=O)CC(C)(C)C)CC4)nc3)c3c(C#N)cnn3c2)cn1` [Example 89] registered an IC50 (10% FBS) of 189 nM.

Turning to `Cn1cc(-c2cc(-c3ccc(N4CCC5(CCCN(C(=O)OC(C)(C)C)C5)CC4)nc3)c3c(C#N)cnn3c2)cn1` [Example 504, tert-Butyl 9-(5-(3-cyano-6-(1-methyl-1H-pyrazol-4-yl)pyrazolo[1,5-a]pyridin-4-yl)pyridine-2-yl)-2,9-diazaspiro[5.5]undecane-2-carboxylate], the IC50 worked out at 2070 nM.

Take `Cn1cc(-c2cc(-c3ccc(N4CCNCC4)cc3)c3c(C#N)cnn3c2)cn1` [Example 291, 6-(1-methyl-1H-pyrazol-4-yl)-4-(4-(piperazin-1-yl)phenyl)pyrazolo[1,5-a]pyridine-3-carbonitrile dihydrochloride]: under “10% FBS”, the IC50 was determined as 918 nM. This lies in the sub-micromolar range.
